Reference: PubChem BioAssay (NCI)
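GI50 marks 50% less growth. TGI is the concentration that stops growth completely.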

Experiments:
Assay in all cases: DTP human tumour cell line panel, 384-well format
[1] = test system: KM12 colon
[2] = test system: TK-10 renal
[3] = test system: ACHN renal
[4] = test system: SF-268 CNS
[5] = test system: NCI-H322M lung
[6] = test system: MOLT-4 leukemia
[7] = test system: PC-3 prostate
[8] = test system: SK-MEL-28 melanoma
[9] = test system: NCI/ADR-RES ovarian
[10] = test system: SK-MEL-5 melanoma
[11] = test system: HOP-62 NSCLC
[12] = test system: SR leukemia
[13] = test system: EKVX NSCLC
[14] = test system: A549 NSCLC
[15] = test system: NCI-H522 lung
[16] = test system: HS 578T breast
[17] = test system: RPMI-8226 leukemia
[18] = test system: SW-620 colon
[19] = test system: MDA-MB-468 breast
[20] = test system: HOP-92 NSCLC
[21] = test system: UACC-62 melanoma
[22] = test system: SK-MEL-2 melanoma
[23] = test system: M14 melanoma
[24] = test system: UACC-257 melanoma
[25] = test system: SNB-19 CNS
[26] = test system: T-47D breast
[27] = test system: HCT-15 colon
[28] = test system: SK-OV-3 ovarian
[29] = test system: SF-295 CNS
[30] = test system: MDA-MB-435 melanoma
[31] = test system: COLO 205 colon
[32] = test system: RXF 393 renal
[33] = test system: NCI-H23 lung
[34] = test system: MDA-MB-231 breast
[35] = test system: IGROV1 ovarian
[36] = test system: CCRF-CEM leukemia
[37] = test system: OVCAR-3 ovarian
[38] = test system: HT29 colon
[39] = test system: U251 glioblastoma
[40] = test system: OVCAR-5 ovarian
[41] = test system: BT-549 breast
[42] = test system: HL-60(TB) leukemia
[43] = test system: MALME-3M melanoma
[44] = test system: A498 renal
[45] = test system: HCC-2998 colon
[46] = test system: 786-0 renal
[47] = test system: NCI-H460 NSCLC
[48] = test system: OVCAR-8 ovarian
[49] = test system: CAKI-1 renal
[50] = test system: NCI-H226 lung
[51] = test system: SN12C renal
[52] = test system: DU-145 prostate
[53] = test system: MCF7 breast
[54] = test system: SNB-75 CNS
[55] = test system: SF-539 CNS
[56] = test system: OVCAR-4 ovarian

SMILES: O=c1[nH]c(C2CCCN2)nc2c1oc1ccc(Cl)cc12 (configuration not stated)
- GI50 [1]: > 100 µM
- TGI [1]: > 100 µM
- GI50 [2]: > 100 µM
- TGI [2]: > 100 µM
- GI50 [3]: > 100 µM
- TGI [3]: > 100 µM
- GI50 [4]: > 100 µM
- TGI [4]: > 100 µM
- GI50 [5]: > 100 µM
- TGI [5]: > 100 µM
- GI50 [6]: 31 µM
- TGI [6]: > 100 µM
- GI50 [7]: > 100 µM
- TGI [7]: > 100 µM
- GI50 [8]: > 100 µM
- TGI [8]: > 100 µM
- GI50 [9]: > 100 µM
- TGI [9]: > 100 µM
- GI50 [10]: 36.2 µM
- TGI [10]: > 100 µM
- GI50 [11]: > 100 µM
- TGI [11]: > 100 µM
- GI50 [12]: 37.3 µM
- TGI [12]: > 100 µM
- GI50 [13]: 85 µM
- TGI [13]: > 100 µM
- GI50 [14]: > 100 µM
- TGI [14]: > 100 µM
- GI50 [15]: 14.4 µM
- TGI [15]: 31 µM
- GI50 [16]: > 100 µM
- TGI [16]: > 100 µM
- GI50 [17]: > 100 µM
- TGI [17]: > 100 µM
- GI50 [18]: > 100 µM
- TGI [18]: > 100 µM
- GI50 [19]: 21.2 µM
- TGI [19]: 56.7 µM
- GI50 [20]: 65.3 µM
- TGI [20]: > 100 µM
- GI50 [21]: > 100 µM
- TGI [21]: > 100 µM
- GI50 [22]: > 100 µM
- TGI [22]: > 100 µM
- GI50 [23]: 62.8 µM
- TGI [23]: > 100 µM
- GI50 [24]: > 100 µM
- TGI [24]: > 100 µM
- GI50 [25]: > 100 µM
- TGI [25]: > 100 µM
- GI50 [26]: 19 µM
- TGI [26]: 35 µM
- GI50 [27]: > 100 µM
- TGI [27]: > 100 µM
- GI50 [28]: > 100 µM
- TGI [28]: > 100 µM
- GI50 [29]: > 100 µM
- TGI [29]: > 100 µM
- GI50 [30]: > 100 µM
- TGI [30]: > 100 µM
- GI50 [31]: 31.2 µM
- TGI [31]: 83 µM
- GI50 [32]: 21 µM
- TGI [32]: 43.1 µM
- GI50 [33]: > 100 µM
- TGI [33]: > 100 µM
- GI50 [34]: 99.5 µM
- TGI [34]: > 100 µM
- GI50 [35]: > 100 µM
- TGI [35]: > 100 µM
- GI50 [36]: 18.2 µM
- TGI [36]: 37.8 µM
- GI50 [37]: > 100 µM
- TGI [37]: > 100 µM
- GI50 [38]: > 100 µM
- TGI [38]: > 100 µM
- GI50 [39]: > 100 µM
- TGI [39]: > 100 µM
- GI50 [40]: > 100 µM
- TGI [40]: > 100 µM
- GI50 [41]: 29.3 µM
- TGI [41]: 78.4 µM
- GI50 [42]: 29.8 µM
- TGI [42]: > 100 µM
- GI50 [43]: 14.8 µM
- TGI [43]: > 100 µM
- GI50 [44]: 58.5 µM
- TGI [44]: > 100 µM
- GI50 [45]: > 100 µM
- TGI [45]: > 100 µM
- GI50 [46]: > 100 µM
- TGI [46]: > 100 µM
- GI50 [47]: > 100 µM
- TGI [47]: > 100 µM
- GI50 [48]: > 100 µM
- TGI [48]: > 100 µM
- GI50 [49]: 57 µM
- TGI [49]: > 100 µM
- GI50 [50]: 49.5 µM
- TGI [50]: > 100 µM
- GI50 [51]: > 100 µM
- TGI [51]: > 100 µM
- GI50 [52]: > 100 µM
- TGI [52]: > 100 µM
- GI50 [53]: > 100 µM
- TGI [53]: > 100 µM
- GI50 [54]: 38.1 µM
- TGI [54]: > 100 µM
- GI50 [55]: 53.6 µM
- TGI [55]: > 100 µM
- GI50 [56]: 81.8 µM
- TGI [56]: > 100 µM
